According to paper PMC5358997, “Fixed-dose combination orally disintegrating tablets to treat cardiovascular disease: formulation, in vitro characterization and physiologically based pharmacokinetic modeling to assess bioavailability” (Drug Design, Development and Therapy, 2017):

Assays:
[1] = Dissolution testing of ODTs in biorelevant media (USP 2 paddle), f1/f2 comparison; type: physicochemical; conditions: for Similarity factor f2 / Difference factor f1: single (reference) vs FDC (test) dissolution profile; for Similarity factor f2: similar if above 50; for Difference factor f1: similar if below 15; for >85% dissolution ≤15 min: single and FDC formulations; for Results of f1 and f2 testing: similar if f1 below 15 and f2 above 50
Description: API dissolution from ODTs in 900 mL biorelevant media was tested in both FaSSIF and FeSSIF at pH 6.5 and 5, respectively, and maintained at 37°C. An ERWEKA DT 600 USP 2 paddle apparatus (Heusenstamm, Germany) was used at a paddle speed of 50 rpm.[27] A total of 5 mL of sample was taken over 2 h, replacing with 5 mL fresh media to simulate sink conditions. API dissolution was measured using HPLC and corrected for percent dose dissolved.
Differences between dissolution profiles of APIs in single dose (reference) and combination (test) were assessed using f1 and f2 difference and similarity factor testing using the equations:[34] f1={[∑t=1n|Rt−Tt|]/[∑t=1nRt]}*100f2=50*log{[1+(1/n)∑t=1n(Rt−Tt)^2]^−0.5*100} where Rt and Tt are the percent drug-dissolved value at each time point for the reference and test product, respectively, and n is the number of time points.

in vitro = conditions: human; for efflux ratio at 2 h: Caco-2, pH 7.4, Efflux ratio; for Papp A→B at 2 h: Caco-2, pH 7.4, Papp A–B; for Papp B→A at 2 h: Caco-2, pH 7.4, Papp B–A
Description: Media were changed every 2–3 days and transwells cultured at 37°C, 5% CO2 for 21 days, after which transport studies were performed. […] Samples of 100 μL were removed from the A side and 200 μL from the B side at time points over 2 h, replacing with fresh prewarmed media (37°C) to mimic sink conditions. […] Cultures were maintained at 37°C and 5% CO2 throughout the experiment.

LDL-C = conditions: hypercholesterolemic patients; cited from earlier work
[2] = amlodipine (20 μg/mL) and atorvastatin (40 μg/mL) in combination, pH 7.4, n=3, mean ± SD
[3] = drug alone (amlodipine 20 μg/mL, atorvastatin 40 μg/mL), pH 7.4 both compartments, n=3, mean ± SD

Row | SMILES | Dissolution within 15 min ([1]; FaSSIF, both single and FDC ODT) | Similarity factor f2 ([1]; FaSSIF) | Difference factor f1 ([1]; FaSSIF) | >85% dissolution ≤15 min ([1]; FaSSIF) | Results of f1 and f2 testing ([1]; FaSSIF) | Dissolution within 15 min ([1]; FeSSIF, either single or FDC ODT) [%] | Similarity factor f2 ([1]; FeSSIF) | Difference factor f1 ([1]; FeSSIF) | >85% dissolution ≤15 min ([1]; FeSSIF) | Results of f1 and f2 testing ([1]; FeSSIF) | efflux ratio at 2 h (in vitro; amlodipine and atorvastatin in combination, pH 7.4) | efflux ratio at 2 h (in vitro; drug alone, pH 7.4 both compartments) | Papp A→B at 2 h (in vitro; [2]) [×10⁻⁶ cm/s] | Papp A→B at 2 h (in vitro; [3]) [×10⁻⁶ cm/s] | Papp B→A at 2 h (in vitro; [2]) [×10⁻⁶ cm/s] | Papp B→A at 2 h (in vitro; [3]) [×10⁻⁶ cm/s] | Reduction of LDL-C (LDL-C)
1 | CCOC(=O)C1=C(COCCN)NC(C)=C(C(=O)OC)C1c1ccccc1Cl (centres unmarked) [Amlodipine, Amlodipine besylate] | exceeded 85% | 70.80 | 5.08 | Yes | Pass | ≤ 85 | 45.40 | 15.92 | No | Fail | 0.96 | 1.14 | 5.4 ± 0.48 | 8.34 ± 0.32 | 5.18 ± 0.29 | 9.51 ± 1.7 | 
2 | CC(C)c1c(C(=O)Nc2ccccc2)c(-c2ccccc2)c(-c2ccc(F)cc2)n1CC[C@@H](O)C[C@@H](O)CC(=O)O [Atorvastatin, atorvastatin calcium] |  | 53.81 | 14.16 |  | Pass |  | 54.59 | 13.24 |  | Pass |  |  |  |  |  |  | 41%–61%
